Data from patent publication US20030148966A1, “Method and composition for inducing apoptosis in cells” (priority 2002, published 2003).
Values joined by “and” are separate entries in the source; they are usually repeats but may differ in a detail not shown here. Equal entries are not always repeated. Where two headings read alike, the source gives them in different places.

How the values were obtained:
HL-60 cells [1] = conditions: 48 hours
HL-60 cells [2] = assay: ATP bioluminescence assay (intracellular ATP content); assay type: cell-based, human; conditions: 16 hours, percent of untreated control
Method: ATP content was measured with the ATP bioluminescence assay kit HS II from Boehringer Mannheim (Roche Molecular Biochemicals, Mannheim, Germany). Cells were treated with adenosine and BR for 16 hours, and subsequently their viability was measured by trypan blue exclusion. […] An equal amount of cell lysis reagent was then added, and after an incubation period of 5 minutes at room temperature, the samples were transferred to microtiter plates. A Luciferase reagent (100 μl) was added and the signal was detected immediately on a lumi Imager F1 (Roche). Experiments were done in triplicates, and the values of treated samples calculated as percent of untreated controls. […] Cells were harvested and the intercellular ATP content was measured as described in herein. Statistical analysis by t-test confirmed that the differences between ATP-levels after treatment with BR (+/−adenosine) were significant (p<0.05).

HL-60 cells [3] = assay: Deoxyribonucleotide (dNTP) extraction and DNA-polymerase assay; assay type: cell-based, human; conditions: 16 hours; for % dATP / % dCTP: percent of control
Method: The TCA extract was dried using a Speedvac drying system at room temperature and, if necessary, stored at −20° C. until analysis. The assay for dNTP, which is based on the original DNA-polymerase assay^22, was optimized by the use of 96-well plates^23 and tailor-made oligonucleotides^24,25, and was performed as previously described for dCTP^21. After reconstitution of the samples in Hepes-buffered assay buffer (pH 7.3) at 10^7 cells/ml, samples and standards (0, 1, 2.5 and 5 pmol dNTP) were added to diethylaminoethyl (DEAE) filter plates (Millipore, Ettenleur, The Netherlands). This was followed by the addition of demi water (up to 30 μl if a reaction mix, consisting of 10 μl [8-^3H]dATP (25 μM; 1.6 Ci/mmol; 0.04 μCi/μl) for detection of dCTP, dTTP and dGTP and 10 μl[CH3-^3H]dTTP (25 μM; 1.6 Ci/mmol; 0.04 μCi/μl) for dATP detection, 5 μl appropriate oligonucleotide (6 μM. consisting of a primer attached to one of four possible templates specially designed for the detection of one of the four dNTPs), 5 μl Klenow DNA pol I and […] assay buffer. The filterplates were gently vortexed and incubated at room temperature for 2 hours. The wells were washed, the wet filters punched out and radioactivity counted as described^21. The dNTP levels were determined after 16-hours of treatment. At this time point, cells were still alive and membranes intact, preventing non-specific loss of dNTP's^33. […] Whereas, dCTP (89% of control)- and dATP (81% of control)-levels were in the range of control when cells were treated with 5 μM BR, exposure to 20 μM BR, caused a drop in dCTP and dATP levels to 37% and 33%, respectively.

HL-60 cells [4] = assay: Comet assay (single cell gel electrophoresis), DNA strand breaks; assay type: cell-based, human; conditions: for DNA tail length: % of cells <= 25 μm: 16 hours, alkaline pH 13.0; for DNA single strand breaks: alkaline pH (13.0)
in vitro = conditions: human
HL-60 cells [5] = assay: Western blots: PARP, gelsolin and Caspase 3 cleavage; assay type: cell-based, human
Method: Cells from treated and untreated cultures were sedimented, washed in cold PBS, and lysed in SDS sample buffer (25 mM TRIS pH 6.8, 3% SDS, 10% glycerol, 36 mM DTT, 0.925 mM EDTA). Equal amounts of protein (calculated with the Dot Metric Protein Assay Kit from Novus Molecular, San Diego, Calif., USA) were loaded onto 10% or 15% polyacrylamide gels. Proteins were electrophoresed at 80 V for 2 to 3 hours, and then transblotted onto PVDF membranes (Hybond P, Amersham International, UK) at 80 V for 2 hours^20. Membranes were quenched in PBS with 0.5% skim milk and 0.05% Tween 20 for 1 hour, incubated with primary antibodies (mouse monoclonal anti PARP C-2-10 used 1:2000, mouse monoclonal anti-gelsolin used 1:2000, Sigma; rabbit polyclonal anti caspase 3 antibody used 1:1000, St. Cruz) overnight at 4° C., and with horseradish peroxidase, conjugated secondary antibody for 2 hours at room temperature. The ECL kit (Amersham International, UK) was used for blot development; chemiluminescence was detected on Kodak Xomat UV films.
Controls were treated with saline for 24 hours and western blots were performed as described herein. The 89 kD cleavage product of PARP and the 41 kD cleavage product of gelsolin could be detected upon treatment with 5 μM and 10 μM BR, and diminished in response to higher doses of BR.
5 μM and 10 μM BR, which mainly induce apoptosis, triggering processing of caspase 3.20 μM and 40 μM BR mainly provokes necrosis. This is also reflected by the reduced levels of activated caspase 3. In the presence of adenosine, 20 μM and 40 μM BR activate caspase 3 and also induce apoptosis. Equal sample loading was controlled by Ponceau S staining.

HL-60 cells [6] = assay: Transmission electron microscopy of cell morphology; assay type: cell-based, human; conditions: 48 hours
Method: For transmission electron microscopy (TEM) cells treated with PBS (controls), […] glutaraldehyde (in 0.1 M sodium cacodylate buffer with 4% sucrose, pH 7.2) for 45 minutes, washed in sodium cacodylate buffer and post-fixed in 2% osmium tetroxide (in 0.1 M sodium cacodylate buffer with 4% sucrose) for 45 minutes. Following several washes, the cells were concentrated by centrifugation at 150 g for 5 minutes, dehydrated in a graded series of ethanol, washed in propylene oxide, embedded in Epon (Serva, Germany), and sectioned at about 70 nm. The ultra-thin sections were stained with uranyl acetate/lead citrate for observation with a Zeiss EM 902 transmission electron microscope.
The bars at the lower right corners indicated 1.1 μm.

leukemia cells = assay: Oncolytic activity against leukemia cells; assay type: cell-based

CC1=C(/C=C/C(C)=C/C=C/C(C)=C/C(=O)O)C(C)(C)CCC1 [ATRA, all-trans retinoic acid, reference compound]
% apoptotic cells (HL-60 cells [1]; 120 μM ATRA): 30% | % necrotic cells (HL-60 cells [1]; 120 μM ATRA): 45%

Nc1ncnc2c1ncn2[C@@H]1O[C@H](CO)[C@@H](O)[C@H]1O [Ade, adenosine, reference compound]
% ATP (HL-60 cells [2]; adenosine alone (800 μM)): 85% | % dATP (HL-60 cells [3]; adenosine alone): 70% | % dCTP (HL-60 cells [3]; adenosine alone): 64% | DNA tail length: % of cells <= 25 μm (HL-60 cells [4]; adenosine alone): 98% <= 25 μm | % apopt (HL-60 cells [1]; adenosine alone): 7% | % necro (HL-60 cells [1]; adenosine alone): 0% | % total death (HL-60 cells [1]; adenosine alone): 7% | % viable + apopt (HL-60 cells [1]; adenosine alone): 100% | viability at 48 h, 800 µM (in vitro): 93%

NC(=O)c1cccc([C@@H]2O[C@H](CO)[C@@H](O)[C@H]2O)c1 [BR, benzamide riboside]
% ATP (HL-60 cells [2]; 5 μM BR +/- adenosine (800 μM)): 50% | % ATP (HL-60 cells [2]; 20 μM BR +/- adenosine (800 μM)): 3% and 2.7% | % dATP (HL-60 cells [3]; 5 μM BR +/- adenosine): 81% | % dCTP (HL-60 cells [3]; 5 μM BR +/- adenosine): 89% | dGTP levels, % of control (HL-60 cells [3]; 5 μM or 20 μM BR): approximately 53% | % dATP (HL-60 cells [3]; 20 μM BR +/- adenosine): 33% | % dCTP (HL-60 cells [3]; 20 μM BR +/- adenosine): 37% | DNA single strand breaks (HL-60 cells [4]; 5 μM BR): but not with 5 μM BR treatment | DNA tail length: % of cells <= 25 μm (HL-60 cells [4]; 20 μM BR +/- adenosine): 50% <= 25 μm | DNA double strand breaks (HL-60 cells [4]; 20 μM BR, 8 hours, neutral pH (7.5)): induced DNA double strand breaks | DNA single strand breaks (HL-60 cells [4]; 20 μM BR): DNA single strand breaks occurred | cell death and gelsolin cleavage (HL-60 cells [5]; 0.5 μM, 1 μM or 2 μM BR, 24 hours): neither induced cell death, nor gelosin cleavage | Caspase 3 activation (p20 kD fragment) (HL-60 cells [5]; 5 μM and 10 μM BR, 24 hours): Caspase 3 activation culminated | cell death mode; gelsolin (41 kD) and PARP (89 kD) fragmentation (HL-60 cells [5]; 5 μM or 10 μM BR, 24 hours): caused apoptosis | cell death mode; PARP and gelsolin fragmentation (HL-60 cells [5]; 20 μM BR, 24 hours): increase of the fraction of necrotic cells | Caspase 3 activation (p20 kD fragment) (HL-60 cells [5]; 20 μM or 40 μM BR +/- 800 μM adenosine): activation was inhibited | cell morphology by electron microscopy (HL-60 cells [6]; 5 μM BR): electron dense chromatin marginated at the nuclear envelope as a hallmark of apoptosis | cell morphology by electron microscopy (HL-60 cells [6]; 20 μM BR): typical necrotic morphology | concentration range of strong oncolytic activity (leukemia cells): 5 to 10 µM | % apopt (HL-60 cells [1]; 5 μM BR +/- adenosine): 69% | % necro (HL-60 cells [1]; 5 μM BR +/- adenosine): 2% | % total death (HL-60 cells [1]; 5 μM BR +/- adenosine): 71% | % viable + apopt (HL-60 cells [1]; 5 μM BR +/- adenosine): 98% | % apopt (HL-60 cells [1]; 20 μM BR +/- adenosine): 30% | % necro (HL-60 cells [1]; 20 μM BR +/- adenosine): 51% | % total death (HL-60 cells [1]; 20 μM BR +/- adenosine): 81% | % viable + apopt (HL-60 cells [1]; 20 μM BR +/- adenosine): 49%
